Test results from patent US20090022803A1, “Oral Formulations For Delivery of Catecholic Butanes Including Ndga Compounds” (priority 2005, published 2009).
Read-outs that look alike come from different tables or passages of the source.

Assay type: physicochemical
Protocol: A 10 mL solution of M4N at a concentration of about 10 mg/mL in 40% BP-β-CD was made as follows. About 10 mL of the 40% HP-β-CD solution were added to a glass beaker containing a stir bar. The beaker was placed on a magnetic plate and the stir bar was set to stir at medium speed. About […] of M4N were slowly added to the 40% HP-β-CD in the center of the beaker with the aid of a spatula. The M4N/40% HP-β-CD mixture was stirred for 2 hr or until all M4N was uniformly suspended without any clumps being present. The M4N/40% HP-β-CD mixture was optionally heated at 80° C. for about 30 min. (or longer if a larger volume of solution was desired, for example, 1 hr at 80° C. for 100 mL of the M4N/HP-β-CD mixture), or longer as needed to ensure complete dissolution of M4N. […] The final M4N/40% HP-β-CD solution was stored at room temperature and was kept protected from light. This process may be scaled up or down to obtain the requisite volume or concentration of M4N. Formulations containing M4N in other cyclodextrin solutions may be similarly made, such as, for example, by substituting HP-β-CD in the process described above with other cyclodextrins. […]
A 10 mL solution of M4N at a concentration of about 10 mg/mL in 50% HP-β-CD/0.5% HPMC was made as follows. About 10 mL of the 50% HP-β-CD/0.5% HPMC solution were added to a glass beaker containing a stir bar. The beaker was placed on a magnetic plate and the stir bar was set to stir at medium speed. About 100 mg of M4N were slowly added to the 50% HP-β-CD/0.5% HPMC in the center of the beaker with the aid of a spatula. The M4N/50% HP-β-CD/0.5% HPMC mixture was stirred for 24 hr or until all M4N was uniformly suspended without any clumps being present. The M4N/50% HP-β-CD/0.5% HPMC mixture was heated at about 90° C. for about 30 min. (or longer if a larger volume of solution was desired, for example, 1 hr at 90° C. for 500 mL of the M4N/50% HP-β-CD/0.5% HPMC mixture), or longer as needed to ensure complete dissolution of M4N. […] The final M4N/50% HP-β-CD/0.5% HPMC solution was stored at room temperature and was kept protected from light.
A 10 mL solution of M4N at a concentration of about 20 mg/mL in 5% EC (w/v) (the “EC formulation”) was made as follows. About 10 mL of 5% EC formulation, made as described above, were added to a glass beaker containing a stir bar. The beaker was placed on a magnetic plate and the stir bar was set to stir at medium speed, and covered with a round Teflon® cover. About 200 mg of M4N were slowly added to the 5% EC formulation in the center of the beaker with the aid of a spatula to prevent M4N from sticking to the beaker wall. The M4N/EC mixture was stirred for 2 hr or until all M4N had dissolved or was uniformly suspended without any clumps being present. The M4N/EC mixture was heated at about 60° C. for about 30 min. (or longer if a larger volume of solution was desired, for example, 1 hr at 60° C. for 500 mL of the M4N/EC mixture), or longer as needed to ensure complete dissolution of M4N. […] The final M4N/EC solution was stored at room temperature and was kept protected from light.
A 10 mL solution of M4N at a concentration of about 50 mg/mL in sesame oil was made as follows. About 10 mL of sesame oil were added to a glass beaker containing a stir bar. The beaker was placed on a magnetic plate and the stir bar was set to stir at medium speed. About 500 mg of M4N were slowly added to the sesame oil in the center of the beaker with the aid of a spatula to prevent M4N from sticking to the beaker wall. The M4N/sesame oil mixture was stirred for about 2 hr or until all M4N had dissolved or was uniformly suspended without any clump being present. The M4N/sesame oil mixture was heated at about 60° C. for about 30 min. (or longer if a larger volume of solution was desired, for example, 1 hr at 60° C. for 500 mL of the M4N/sesame oil mixture), or longer as need to ensure complete dissolution of M4N. […]

[1] = M4N 13.3 mg/mL in 27% HP-β-CD, 33% PEG 400 (v/v)
[2] = M4N 13.3 mg/mL in 27% HP-β-CD, 33% Tween ® 80 (v/v)
[3] = M4N 16.7 mg/mL in 13% HP-β-CD, 67% PEG 300 (v/v)
[4] = M4N 19.3 mg/mL in 10% HP-β-CD, 77% PEG 300 (v/v)
[5] = M4N 50 mg/mL in 50% HP-β-CD, 1.25% PVP (w/v)
For Dissolution After Cool Down in this document: key: N represents 'No'; Y represents 'Yes.'.

With `COc1ccc(C[C@@H](C)[C@@H](C)Cc2ccc(OC)c(OC)c2)cc1OC` [Formulation M4N, meso-1,4-bis(3,4-dimethoxyphenyl)-2,3-dimethylbutane] the “Dissolution After Cool Down” value [1] was “Y”, the “Dissolution After Rotation” value [1] was “N” and the “Dissolution After Heating at X° C.” value (M4N 13.3 mg/mL in 27% HP-β-CD, 33% PEG 400 (v/v), 60°) was “Y at 60°”. The “Dissolution After Cool Down” value [2] was “N”, the “Dissolution After Rotation” value [2] was “N” and the “Dissolution After Heating at X° C.” value (M4N 13.3 mg/mL in 27% HP-β-CD, 33% Tween ® 80 (v/v), 60°) was “Y at 60°”. The “Dissolution After Rotation” value (M4N 14 mg/mL in 40% HP-β-CD) was “N”, the “Dissolution After Heating at X° C.” value (M4N 14 mg/mL in 40% HP-β-CD, 80°) was “N at 80°” and the “Dissolution After Rotation” value (M4N 16 mg/mL in 40% HP-β-CD) was “N”. The “Dissolution After Heating at X° C.” value (M4N 16 mg/mL in 40% HP-β-CD, 80°) was “N at 80°”, the “Dissolution After Cool Down” value [3] was “N” and the “Dissolution After Rotation” value [3] was “N”. The “Dissolution After Heating at X° C.” value (M4N 16.7 mg/mL in 13% HP-β-CD, 67% PEG 300 (v/v), 60°) was “Y at 60°”, the “Dissolution After Cool Down” value [4] was “N” and the “Dissolution After Rotation” value [4] was “N”. For the same molecule, the “Dissolution After Heating at X° C.” value (M4N 19.3 mg/mL in 10% HP-β-CD, 77% PEG 300 (v/v), 60°) was “Y at 60°”, the “Dissolution After Cool-Down” value (M4N 20 mg/mL in 5% EC in EtOH) was “Y” and the “Dissolution After Rotation” value (M4N 20 mg/mL in 5% EC in EtOH) was “N”. For the same molecule, the “Dissolution After Rotation” value (M4N 20 mg/mL in 30% HP-β-CD) was “N”, the “Dissolution After Heating at X° C.” value (M4N 20 mg/mL in 30% HP-β-CD, 90°) was “N at 90°” and the “Dissolution After Rotation” value (M4N 20 mg/mL in 40% HP-β-CD) was “N”. The “Dissolution After Heating at X° C.” value (M4N 20 mg/mL in 40% HP-β-CD, 80°) was “N at 80°”, the “Dissolution After Rotation” value (M4N 20 mg/mL in 50% HP-β-CD) was “N” and the “Dissolution After Rotation” value (M4N 20 mg/mL in 50% HP-β-CD, 0.5% CMC) was “Suspension”. The “Dissolution After Rotation” value (M4N 20 mg/mL in 50% HP-β-CD, 0.5% HPMC, other experiment, no heat) was “Suspension”, the “Dissolution After Heating at X° C.” value (M4N 20 mg/mL in 50% HP-β-CD, 90°) was “N at 90°” and the “Dissolution After Cool-Down” value (M4N 20 mg/mL in Corn Oil) was “Y”. The “Dissolution After Cool-Down” value (M4N 20 mg/mL in Sesame Oil) was “Y”, the “Dissolution After Cool-Down” value (M4N 24.3 mg/mL in 75% Sesame Oil, 9% Tween ® 20, 16% Glycerol) was “Y” and the “Dissolution After Cool-Down” value (M4N 29 mg/mL in 89% Sesame Oil, 11% Tween ® 20) was “Y”. For the same molecule, the “Dissolution After Cool-Down” value (M4N 30 mg/mL in 5% EC in EtOH) was “N”, the “Dissolution After Rotation” value (M4N 30 mg/mL in 5% EC in EtOH) was “N” and the “Dissolution After Cool-Down” value (M4N 30 mg/mL in Olive Oil) was “N”. For the same molecule, the “Dissolution After Cool-Down” value (M4N 30 mg/mL in Sesame Oil) was “Y”, the “Dissolution After Cool-Down” value (M4N 30 mg/mL in Soybean Oil) was “N” and the “Dissolution After Cool-Down” value (M4N 40 mg/mL in 50% Peppermint Oil, 50% PEG 300) was “Y”. For the same molecule, the “Dissolution After Cool-Down” value (M4N 40 mg/mL in 50% Peppermint Oil, 50% PEG 400) was “Y”, the “Dissolution After Cool-Down” value (M4N 40 mg/mL in 50% Peppermint Oil, 50% Sesame Oil) was “Y” and the “Dissolution After Cool-Down” value (M4N 40 mg/mL in 50% Peppermint Oil, 50% Tween ® 20) was “Y”. The “Dissolution After Cool-Down” value (M4N 40 mg/mL in 85% Sesame Oil, 15% Tween ® 20) was “N”, the “Dissolution After Cool-Down” value (M4N 40 mg/mL in Corn Oil) was “Y” and the “Dissolution After Cool-Down” value (M4N 40 mg/mL in Peppermint Oil) was “Y”. The “Dissolution After Rotation” value (M4N 50 mg/mL in 2.3% HPMC) was “N”, the “Dissolution After Cool-Down” value (M4N 50 mg/mL in 5% EC in EtOH) was “N” and the “Dissolution After Rotation” value (M4N 50 mg/mL in 5% EC in EtOH) was “N”. The “Dissolution After Rotation” value (M4N 50 mg/mL in 15% α-CD) was “N”, the “Dissolution After Heating at X° C.” value (M4N 50 mg/mL in 15% α-CD, 90°) was “N at 90°” and the “Dissolution After Rotation” value (M4N 50 mg/mL in 20% HP-β-CD in saline) was “N”. For the same molecule, the “Dissolution After Rotation” value (M4N 50 mg/mL in 30% HP-β-CD) was “N”, the “Dissolution After Heating at X° C.” value (M4N 50 mg/mL in 30% HP-β-CD, 90°) was “N at 90°” and the “Dissolution After Rotation” value (M4N 50 mg/mL in 40% HP-β-CD) was “N”. For the same molecule, the “Dissolution After Heating at X° C.” value (M4N 50 mg/mL in 40% HP-β-CD, 80°) was “N at 80°”, the “Dissolution After Rotation” value (M4N 50 mg/mL in 50% HP-β-CD) was “N” and the “Dissolution After Rotation” value (M4N 50 mg/mL in 50% HP-β-CD, 0.5% HPMC) was “N”. The “Dissolution After Rotation” value (M4N 50 mg/mL in 50% HP-β-CD, 0.5% HPMC, other experiment, no heat) was “Suspension”, the “Dissolution After Heating at X° C.” value [5] was “N” and the “Dissolution After Rotation” value [5] was “N”. The “Dissolution After Heating at X° C.” value (M4N 50 mg/mL in 50% HP-β-CD, 90°) was “N at 90°” and the “Dissolution After Cool-Down” value (M4N 50 mg/mL in Camillia Oil) was “N”.
